The source of these data is patent US10292976B2, “Anti-malarial agent” (RIKEN, priority 2014, dated 2019).

The IC50 is the concentration needed to halve the response being measured.

The test system of data set [1] is drug-resistant malaria parasite K1 strain. Briefly: Antimalarial activity by LDH assay, K1 strain. It is filed as cell-based, Plasmodium falciparum. The procedure: (§1) The LDH assay was carried out according to the following procedure. That is, 0.5 μL of a solution of each compound in DMSO was added to 100 μL of a culture liquid of erythrocytes (88% RPMI solution; 2% erythrocytes, provided by the Japanese Red Cross Society; and 10% human serum, provided by the Japanese Red Cross Society) infected with falciparum malaria parasites (Plasmodium falciparum: 3D7 strain) (infection rate of erythrocytes, 0.3%). The resulting culture liquid was subjected to culture in a 96-well plate under an atmosphere of 5% CO2, 5% O2, and 90% N2 at 37° C. for three days. Subsequently, the culture liquid was cooled at −80° C. for three hours, and then returned to room temperature. After addition of 150 μL of an LDH enzyme reaction liquid (0.15 mg/mL diaphorase, 37.5 μL/mL of 50% sodium lactate, 0.17 mg/mL NBT, 0.11 mg/mL APAD, 0.16 mL/mL of 1 M Tris-HCl (pH 8), and 8.3 μL/mL of Tween 20), the absorbance at 620 nm was measured.
(§2) According to the same procedure as in Experiment 1, the antimalarial activities of metal complexes (M-L6) synthesized by mixing various kinds of metal ions (MSO4: M=Zn, Fe, Cu, Co, Ni, or Mn) with L6 at a molar ratio of 1:1 were evaluated by LDH assay.
According to the same procedure as in Experiment 1, the antimalarial activities of L18 and di-2-pyridylketone 4,4-dimethyl-3-thiosemicarbazone (Sigma) against the malaria parasite 3D7 strain and the drug-resistant malaria parasite K1 strain were evaluated by LDH assay.
According to the same procedure as in Experiment 1, the antimalarial activities of 4′-(4-Pyridyl)-2,2′:6′,2″-terpyridine (Tokyo Chemical Industry) against the malaria parasite 3D7 strain and the drug-resistant malaria parasite K1 strain were evaluated by LDH assay.

The test system of data set [2] is Plasmodium falciparum: 3D7 strain. Briefly: Antimalarial activity by LDH assay, 3D7 strain. The following applies: for antimalarial activity (LDH assay, FIG. 2): 10 nM to 10 μM. The data set is classed as cell-based. As for the experimental part:
Compounds that chelate metal ions in various modes (L1 to L25 in FIG. 1) were selected, and their antimalarial activities were evaluated by LDH assay. Since infection with malaria causes an increase in the LDH activity, the evaluation can be made based on the criteria that the lower the detected LDH activity, the higher the antimalarial activity.
as §1
By the same procedure as in Experiment 1, erythrocytes infected with malaria were treated with L6 (about 40 nM) together with iron ion (about 50 μM), copper ion (about 1 μM), or zinc ion (about 10 μM), and the antimalarial activity was evaluated by LDH assay.
as §2

A short description of data set [3]: Cytotoxicity by WST-8 assay, 3Y1. The data set is classed as cell-based. The following applies: rat, 3Y1 cells, 3Y1, 48 hours. As for the experimental part: (§3) After treating various kinds of cells (HEK293T: human embryonic kidney cells; HeLa: human cervical cancer cells; NIH3T3: mouse fibroblast cells; tsNRK: rat kidney cells; and 3Y1: rat fibroblasts) with a metal chelator for 48 hours, the cytotoxicities of the cells were evaluated by WST-8 assay.
In general terms: Tetrazolium dyes change colour on reduction, which living cells bring about.

The nature of data set [4]: Cytotoxicity by WST-8 assay, tsNRK. The settings on record: rat, tsNRK cells. The data set is classed as cell-based. As for the experimental part: as §3
Data set [5] in a line: Cytotoxicity by WST-8 assay, HEK293T. It is filed as cell-based. The following applies: human, HEK293T cells. The procedure: as §3
Data set [6] is described as follows: Cytotoxicity by WST-8 assay, NIH3T3. It is filed as cell-based. The following applies: mouse, NIH3T3 cells, NIH3T3, 48 hours. As for the experimental part:
as §3

For data set [7], the system named is malaria parasites. The settings on record: cited from earlier work.
The nature of data set [8]: Cytotoxicity by WST-8 assay, HeLa. It is filed as cell-based, human. The settings on record: human, HeLa cells, HeLa, 48 hours, read-out: IC50 value, cytotoxicity. As for the experimental part: as §3
(§4) Subsequently, the following cell types: HL60 (human promyelocytic leukemia cells), HeLa (human cervical cancer cells), C3H10T1/2 (murine multipotential mesenchymal cells), and HEK293 (human embryonic kidney 293 cells); were treated with metal complexes M-L6 (M=Zn, Fe, Cu, Co, Ni, and Mn) for 48 hours, and then subjected to WST-8 assay to perform evaluation of the cytotoxicity of each kind of metal complex.

The test system of data set [9] is HL60 (human promyelocytic leukemia cells). Briefly: Cytotoxicity by WST-8 assay, HL60. The data set is classed as cell-based. The following applies: Table 3, 48 hours. The procedure:
as §4

Data set [10] relates to C3H10T1/2 (murine multipotential mesenchymal cells). Briefly: Cytotoxicity by WST-8 assay, C3H10T1/2. It is filed as cell-based. The settings on record: Table 3, 48 hours. As for the experimental part:
as §4

The subject of data set [11] is HEK293 (human embryonic kidney 293 cells). Briefly: Cytotoxicity by WST-8 assay, HEK293. It is filed as cell-based. The following applies: Table 3, 48 hours. As for the experimental part: as §4
Data set [12] concerns HeLa: human cervical cancer cells. Briefly: Cytotoxicity by WST-8 assay, HeLa. It is filed as cell-based. The settings on record: Table 3, 48 hours, WST-8. The procedure: as §3, §4
Data set [13] deals with HL60, HeLa, C3H10T1/2, and HEK293. Briefly: Cytotoxicity by WST-8 assay, summary for the four cell types of Experiment 6. The data set is classed as cell-based. The settings on record: C3H10T1/2, HEK293, 48 hours. As for the experimental part: as §4
Data set [14] relates to mouse malaria parasites (Plasmodium berghei ANKA strain). Briefly: Life-prolonging effect in malaria-infected mice, oral administration. The data set is classed as in vivo. The following applies: oral 200 mg/kg on Day 1, Day 3, and Day 6. The procedure:
To mice (7 weeks old, Balb/c, male), erythrocytes infected with mouse malaria parasites (Plasmodium berghei ANKA strain) (total number of erythrocytes per mouse, about 10^7; rate of malaria-infected erythrocytes, 0.3%) were intraperitoneally injected. L6 was administered (20 mg/kg, intraperitoneal injection) to each of the thus obtained malaria-infected mice, and the rate of malaria-infected erythrocytes was measured. As a result, on Day 2 to Day 6 after the infection, the infection rate tended to increase in the negative control to which only DMSO was administered. […] The effect of L6 to reduce the infection rate was almost equivalent to the effect of an existing drug, chloroquine (CQ).
To malaria-infected mice obtained by the same procedure as in Experiment 4, an aqueous solution of L6 or the zinc complex Zn-L6 was orally administered (at a dose of 200 mg/kg on Day 1, Day 3, and Day 6; N=6), and changes in the number of surviving individuals were investigated. […] That is, it is thought that, by formation of metal complex with zinc ion, L6 can remarkably suppress the toxicity in vivo while sufficiently maintaining the antimalarial activity.

For data set [15], the system named is Dd2 strain (drug-resistant malaria parasites). Briefly: Antimalarial activity by LDH assay, Dd2 strain. It is filed as cell-based, Plasmodium falciparum. The settings on record: Table 2, LDH assay, Experiment 6; read-out: IC50 antimalarial activity, Dd2.
Setting [16] is: Plasmodium falciparum, LDH assay, values in text, read-out: IC50 antimalarial activity against the K1 strain.
Where [17] appears, read: Plasmodium falciparum, 3D7, 3D7 strain, values in text, read-out: IC50 value for the antimalarial activity based on the LDH assay.
The mark [18] stands for this setting: Table 2, LDH assay, Experiment 6, read-out: IC50 antimalarial activity, 3D7.

Like-named read-outs stand apart in the source and are kept apart here.

For the compound `c1ccc(-c2cc(-c3ccncc3)cc(-c3ccccn3)n2)nc1` [4′-(4-Pyridyl)-2,2′:6′,2″-terpyridine], the IC50 in [1] (setting [16]) is around 0.07 µM; in data set [2] (setting [17]), around 0.16 µM.

In the case of `CN(C)C(=S)NN=C(c1ccccn1)c1ccccn1` [di-2-pyridylketone 4,4-dimethyl-3-thiosemicarbazone], the IC50 in data set [1] (setting [16]) is around 0.003 µM; in [2] (setting [17]), around 0.004 µM.

In the case of `CN(C(=S)NN=C(c1ccccn1)c1ccccn1)C1CCCCC1` [di-2-pyridylketone-4-cyclohexyl-4-methyl-3-thiosemicarbazone], the IC50 in data set [2] (setting [17]) was around 0.002 µM.

As to `Nc1cc2cccnc2c2ncccc12` [L3, (1,10)-Phenanthrolin-5-amine], the IC50 at 48 h came to 0.73 µM in [3] (1st measurement); 0.67 µM in data set [3] (2nd measurement); 6.12 µM in data set [4] (1st measurement); 3.08 µM in data set [4] (2nd measurement); 0.49 µM in data set [5] (1st measurement); 0.47 µM in data set [5] (2nd measurement).

As for `c1ccc(CN(CCN(Cc2ccccn2)Cc2ccccn2)Cc2ccccn2)nc1` [L7, N,N,N′,N′-Tetrakis(2-pyridylmethyl)ethylenediamine, reference compound], the IC50 at 48 h came to 1.66 µM in data set [6] (1st measurement); 1.79 µM in data set [6] (2nd measurement); 5.11 µM in data set [3] (1st measurement); 4.93 µM in data set [3] (2nd measurement); 1.84 µM in data set [4] (1st measurement); 2.09 µM in data set [4] (2nd measurement). Also, the IC50 at 48 h came to 5.53 µM in data set [8] (1st measurement (Table 1)), 4.96 µM in data set [8] (2nd measurement (Table 1)), 1.99 µM in data set [5] (1st measurement) and 3.14 µM in [5] (2nd measurement). In addition, the “inhibition of infection with malaria parasites” value in [7] (Non-patent Document 1) is given as “inhibits infection with malaria parasites”.

With `C[C@@H]1CC[C@H]2[C@@H](C)C(=O)O[C@@H]3O[C@@]4(C)CC[C@@H]1[C@]32OO4` [artemisinin, reference compound], the IC50 in data set [2] (setting [17]) is around 0.016 µM.

Take `O=S(=O)([O-])[O-].[Fe+2].c1ccc(CN(Cc2ccccn2)Cc2ccccn2)nc1` [Fe-L6]: the IC50 in data set [9] stood at 4.8 µM; in data set [10], 9.6 µM; in data set [11], 6.1 µM; in data set [2] (setting [18]) it was 0.19 µM; in data set [12], 9.5 µM.

Take `O=S(=O)([O-])[O-].[Mn+2].c1ccc(CN(Cc2ccccn2)Cc2ccccn2)nc1` [Mn-L6]: the 50% inhibitory concentration (IC50) in [9] amounted to 1.5 µM; in data set [10] it was 4.2 µM; in [11], 3.7 µM; in [2] (setting [18]) it was 0.11 µM; in data set [12], 4.5 µM.

Regarding `O=S(=O)([O-])[O-].[Ni+2].c1ccc(CN(Cc2ccccn2)Cc2ccccn2)nc1` [Ni-L6], the IC50 in [9] was determined as 16 µM; in [10], 54 µM; in [11] it was 47.6 µM; in data set [2] (setting [18]), 0.74 µM; in [12], 32 µM.

On to `O=C(Nc1cccc(CN(Cc2ccccn2)Cc2ccccn2)n1)c1ccccc1` [Bis(2-pyridylmethyl)(6-benzamide-2-pyridylmethyl)amine], for which the IC50 in data set [2] (setting [17]) is around 0.07 µM.

In the case of `CCN(CC)CCCC(C)Nc1ccnc2cc(Cl)ccc12` (stereo not drawn) [chloroquine, reference compound], the IC50 in data set [2] (Plasmodium falciparum, 3D7, read-out: IC50 value for the antimalarial activity based on the LDH assay) was around 0.045 µM.

Consider `O=S(=O)([O-])[O-].[Co+2].c1ccc(CN(Cc2ccccn2)Cc2ccccn2)nc1` [Co-L6], for which the IC50 in data set [9] worked out at 6.6 µM; in [10], 18 µM; in [11], 20.6 µM; in [2] (setting [18]), 0.55 µM; in data set [12], 18 µM.

On to `c1ccc(-c2cccc(-c3ccccn3)n2)nc1` [L18, 2,2′:6′,2″-Terpyridine], for which the IC50 in data set [1] (setting [16]) was around 0.12 µM; in data set [2] (setting [17]), around 0.28 µM. In addition, the “antimalarial activity (LDH assay, FIG. 2)” value in [2] (result in words) is listed as “relatively strong antimalarial activity”.

Consider `O=S(=O)([O-])[O-].[Zn+2].c1ccc(CN(Cc2ccccn2)Cc2ccccn2)nc1` [Zn-L6], for which the IC50 in data set [13] was above 100 µM; in data set [9], above 100 µM; in data set [10] it was above 100 µM; in data set [1] (Table 2, LDH assay, Experiment 6, read-out: IC50 antimalarial activity, K1) it was 0.089 µM; in data set [11], above 100 µM; in [2] (setting [18]), 0.093 µM. Besides, the results for the IC50 in data set [12] and in [15] were above 100 µM and 0.166 µM, respectively. Also, in data set [14], the “cure / infection rate of malaria” value is listed as “completely cured mice, in which the infection rate of malaria was 0%, could be found”. Besides, the “life-prolonging effect (number of surviving individuals)” value in [14] was “significantly better life-prolonging effect than in the control”. Moreover, the “antimalarial activity of metal complex compared to L6 alone” value in data set [2] (LDH assay, metal ion:L6 molar ratio 1:1, result in words) was “almost the same as that in the case of L6 alone”.

For `O=S(=O)([O-])[O-].[Cu+2].c1ccc(CN(Cc2ccccn2)Cc2ccccn2)nc1` [Cu-L6], the IC50 in data set [9] is 5 µM; in data set [10], 12 µM; in data set [11] it was 6 µM; in data set [2] (setting [18]), 0.12 µM; in [12], 13 µM.

Consider `CC(=O)N(O)CCCCCNC(=O)CCC(=O)N(O)CCCCCNC(=O)CCC(=O)N(O)CCCCCN` [DFO, desferrioxamine], for which the concentration for half-maximal inhibition (IC50) in [7] (Non-patent Document 3, read-out: antimalarial activity IC50) was 21 µM.

Consider `c1ccc(-c2ccnc3c2ccc2c(-c4ccccc4)ccnc23)cc1` [L17, 4,7-Diphenyl-1,10-phenanthroline], for which, in data set [2] (result in words), the “antimalarial activity (LDH assay, FIG. 2)” value is on record as “relatively strong antimalarial activity”.
